Experimental data: patent EP2535049A1 (Proyecto de Biomedicina Cima, S.L., priority 2011, dated 2012)
Entries after “also recorded” stand apart in the source; their conditions may differ.

Tests used:
[1] = tested on: pTau; assay: Western blot of pTau in hippocampus of J20 mice; assay type: in vivo; conditions: J20 mice (22-month-old) treated for 10 weeks, normalized to total Tau
Procedure: (§1) Results were compared with those obtained from age-matched negative littermates (controls). To test the effect of the PDE5 inhibitors in cognition capacity related to aging, a second treatment was carried out using 10-12 month-old non-transgenic (wild type) mice on an inbred C57/B6xSJL genetic background.
Twenty four hours after the fear conditioning test, animals (n=5, per group) were sacrificed and the brains removed for biochemical studies. The cortex and hippocampus were dissected, homogenized, and processed as described below for subsequent western blot analysis. Under xylazine/ketamine anesthesia, animals (n=4 per group) were perfused transcardially with saline and 4% paraformaldehyde in phosphate buffer (PB). After perfusion, brains were removed, post-fixed in the same fixative solution for 1 h at room temperature and cryoprotected in 30% sucrose solution in PB overnight at 4 °C. Microtome sections ([…]) were cut coronally, collected free-floating and stored in 30% ethylene glycol, 30% glycerol, and 0.1M PB at - 20 °C until processed.
(§2) Total tissue homogenates were obtained by homogenizing the hippocampus in a cold lysis buffer with protease inhibitors (0.2 M NaCl, 0.1 M HEPES, 10% glycerol, 200 mM NaF, 2 mM Na4P2O7, 5 mM EDTA, 1 mM EGTA, 2 mM DTT, 0.5 mM PMSF, 1 mM Na3VO4, 1 mM benzamidine, 10 µg/ml leupeptin, 400 U/ml aprotinin), centrifuged at 14,000 x g 4 °C for 20 minutes and the supernatant was aliquoted and stored at -80 °C. Total protein concentrations were determined using the BioRad Bradford protein assay (BioRad Laboratories).
Protein samples were mixed with an equal volume of 2 x Laemmli sample buffer, resolved onto SDS-polyacrylamide gels and transferred to nitrocellulose membrane. […] Following two washes in PBS/Tween-20 or TBS/Tween-20 and one PBS or TBS alone, immunolabeled protein bands were detected by using HRP-conjugated anti-rabbit or anti-mouse antibody (Santa Cruz; dilution 1:5000) following an enhanced chemiluminescence system (ECL, GE Healthcare Bioscience, Buckinghamshire, UK), and autoradiographic exposure to Hyperfilm™ECL (GE Healthcare Bioscience). Quantity OneTM software v.4.6.3 (Bio-Rad) was used for quantification.

[2] = tested on: pGSK3β-Ser9; assay: Western blot of pGSK3β-Ser9 in hippocampus of J20 mice; assay type: in vivo; conditions: J20 mice treated for 10 weeks, vs saline
Procedure: as §1
(§3) Twenty four hours after the fear conditioning test, animals (n=5, per group) were sacrificed and the brains removed for biochemical studies. The cortex and hippocampus were dissected, homogenized, and processed as described below for subsequent western blot analysis. […]
as §2
(§4) Protein samples were mixed with an equal volume of 2 x Laemmli sample buffer, resolved onto SDS-polyacrylamide gels and transferred to nitrocellulose membrane. […] Quantity OneTM software v.4.6.3 (Bio-Rad) was used for quantification.

[3] = tested on: pAkt; assay: Western blot of pAkt in hippocampus of J20 mice; assay type: in vivo; conditions: J20 mice treated for 10 weeks, vs saline
Procedure: as §1, §3, §2, §4

[4] = tested on: synaptophysin; assay: Western blot of synaptophysin in hippocampus of J20 mice; assay type: in vivo; conditions: J20 mice treated for 10 weeks
Procedure: as §1, §3, §2, §4

[5] = tested on: GluR2/3; assay: Western blot of GluR2/3 in hippocampus of J20 mice; assay type: in vivo; conditions: J20 mice treated for 10 weeks
Procedure: as §1, §3, §2, §4

[6] = tested on: PSD95; assay: Western blot of PSD95 in hippocampus of J20 mice; assay type: in vivo; conditions: J20 mice treated for 10 weeks
Procedure: as §1, §3, §2, §4

[7] = tested on: aged wild type animals (C57/b6xSJL); assay: Morris water maze in aged wild type animals; assay type: in vivo, mice; conditions: 5-weeks treatment, 15 mg/Kg orally; aged (12-14-month-old) wild type animals; vs saline
Procedure: Results were compared with those obtained from age-matched negative littermates (controls). […] The MWM test was used to evaluate spatial memory as previously described (Hsiao et al., 1996; Reed et al., 2010; Ricobaraza et al., 2009). After treatments, groups of animals underwent spatial reference learning and memory testing in the MWM. The water maze was a circular pool (diameter 1.2 m) filled with water maintained at 20 °C and made opaque by the addition of non-toxic white paint. Mice were trained for three consecutive days (8 trials/day) swimming to a raised platform (visible-platform). No distal visible cues were present during this phase. The same platform location was used for all visible-platform sessions and was changed for the invisible-platform training (submerged 1 cm beneath the surface) conducted over 8 consecutive days (4 trials/day) with all visible distal cues present in this phase. […] In the probe trials the platform was removed from the pool, and the percentage of time spent in the quadrant where the platform was previously set was recorded. All trials were monitored by a camera above the center of the pool connected to a SMART-LD program (Panlab S.L., Barcelona, Spain) for subsequent analysis of escape latencies, swimming speed, path length and percent time spent in each quadrant of the pool during probe trials. […]

[8] = tested on: AD mouse models; conditions: Puzzo et al., 2009; cited from earlier work

Row | SMILES | pTau levels (AT8) by Western blotting [1] | pTau levels (PHF1) by Western blotting [1] | pTau levels (AT8) by Western blotting ([1]; listed as Tadalafil) | pGSK3β-Ser9 levels [2] | level of pAkt [3] | expression levels of synaptophysin [4] | expression levels of GluR2/3 [5] | expression levels of PSD95 [6] | learning ability and memory retention in the MWM [7] | effect on memory in AD mouse models [8]
1 | CN1CC(=O)N2[C@H](c3ccc4c(c3)OCO4)c3[nH]c4ccccc4c3C[C@@H]2C1=O [tadalafil, (6R-trans)-6-(1,3-benzodioxol-5-yl)-2,3,6,7,12,12a-hexahydro-2-methyl-pyrazino [1',2':1,6] pyrido [3,4-b]indole-1,4-dione] | decrease in Tau pathology | more marked in tadalafil-treated mice | even more effective than sildenafil | significantly increased; also recorded: being higher the effect of tadalafil | reduction was reverted; also recorded: higher than that of sildenafil | recovered the low expression levels | recovered the low expression levels | recovered the low expression levels | improved learning ability and memory retention | no effect was demonstrated
2 | CCCc1nn(C)c2c(=O)[nH]c(-c3cc(S(=O)(=O)N4CCN(C)CC4)ccc3OCC)nc12 [sildenafil] | decrease in Tau pathology |  |  | significantly increased | reduction was reverted | recovered the low expression levels | recovered the low expression levels | recovered the low expression levels | only observed in the FC test | efficacious drug in improving memory
